Counter-ions that a name gives are not always drawn. Like-named read-outs stand apart in the source and are kept apart here.

Experiment in all cases: AK assay 384-well format, Prestwick library screening
In one assay the test system is E. faecium. The class given is cell-based, Enterococcus faecium. Conditions: 50 μM final drug concentration; for fold induction at 50 µM: Enterococcus faecium, 3 h.
The test system of assay [1] is S. aureus strain USA300-0114. It is filed as cell-based, Staphylococcus aureus. Conditions: 50 μM final drug concentration; for fold induction at 50 µM: Staphylococcus aureus, USA300, 3 h.
The test system of the next assay is K. pneumoniae. It is filed as cell-based, Klebsiella pneumoniae. Particulars: 50 μM final drug concentration; for fold induction at 50 µM: Klebsiella pneumoniae, 3 h.
Assay [2] deals with A. baumannii strain 98-37-09. The class given is cell-based, Acinetobacter baumannii. Conditions: 50 μM final drug concentration; for fold induction at 50 µM: Acinetobacter baumannii, 983709, 3 h.
In the next assay the test system is P. aeruginosa. It is filed as cell-based, Pseudomonas aeruginosa. Conditions: 50 μM final drug concentration; for fold induction at 50 µM: Pseudomonas aeruginosa, 3 h.
The test system of a further assay is E. cloacae. It is filed as cell-based, Enterobacter cloacae. Conditions: 50 μM final drug concentration; for fold induction at 50 µM: Enterobacter cloacae, 3 h.
Another assay concerns E. coli. The class given is cell-based, Escherichia coli. Conditions: 50 μM final drug concentration; for fold induction at 50 µM: Escherichia coli, 3 h.
Setting [3] is: planktonic, cutoff for positive-scoring molecules 3-fold increase, read-out: AK-based Prestwick Library Screening Results, E. faecium (fold increase in extracellular AK activity).
[4] abbreviates: planktonic, cutoff for positive-scoring molecules 3-fold increase, read-out: AK-based Prestwick Library Screening Results, S. aureus (fold increase in extracellular AK activity).
Setting [5] is: planktonic, cutoff for positive-scoring molecules 3-fold increase, read-out: AK-based Prestwick Library Screening Results, K. pneumoniae (fold increase in extracellular AK activity).
[6] abbreviates: planktonic, cutoff for positive-scoring molecules 3-fold increase, read-out: AK-based Prestwick Library Screening Results, A. baumannii (fold increase in extracellular AK activity).
The mark [7] stands for this setting: planktonic, cutoff for positive-scoring molecules 3-fold increase, read-out: AK-based Prestwick Library Screening Results, P. aeruginosa (fold increase in extracellular AK activity).
The mark [8] stands for this setting: planktonic, cutoff for positive-scoring molecules 3-fold increase, read-out: AK-based Prestwick Library Screening Results, E. cloacae (fold increase in extracellular AK activity).
[9] abbreviates: planktonic, cutoff for positive-scoring molecules 3-fold increase, read-out: AK-based Prestwick Library Screening Results, E. coli (fold increase in extracellular AK activity).
The mark [10] stands for this setting: 384-well format, cutoff for positive-scoring molecules 3-fold increase.
Where [11] appears, read: cutoff for positive-scoring molecules 3-fold increase.

As for `Cc1nc2n(c(=O)c1CCN1CCC(c3noc4cc(F)ccc34)CC1)CCCC2` [Risperidone], the fold induction at 50 µM in the assay on E. faecium (planktonic E. faecium, […], read-out: AK-based Prestwick library screening result, E. faecium (fold increase in extracellular AK activity)) was found to be 1; in assay [1] (planktonic S. aureus, […], read-out: AK-based Prestwick library screening result, S. aureus (fold increase in extracellular AK activity)), 1.3; with K. pneumoniae (planktonic K. pneumoniae, […], read-out: AK-based Prestwick library screening result, K. pneumoniae (fold increase in extracellular AK activity)), 1.1; in assay [2] (planktonic A. baumannii, […], read-out: AK-based Prestwick library screening result, A. baumannii (fold increase in extracellular AK activity)), 1.5; with P. aeruginosa (planktonic P. aeruginosa, […], read-out: AK-based Prestwick library screening result, P. aeruginosa (fold increase in extracellular AK activity)) it was 1.1; in the assay on E. cloacae (planktonic E. cloacae, […], read-out: AK-based Prestwick library screening result, E. cloacae (fold increase in extracellular AK activity)), 1.3. For the same compound, the fold induction at 50 µM in the assay on E. coli (planktonic E. coli, […], read-out: AK-based Prestwick library screening result, E. coli (fold increase in extracellular AK activity)) amounted to 1.1.
As for `C#C[C@]1(OC(C)=O)CC[C@H]2[C@@H]3CCC4=C[C@@H](OC(C)=O)CC[C@@H]4[C@H]3CC[C@@]21C` [Ethynodiol diacetate], the fold induction at 50 µM was determined as 0.9 in the assay with E. faecium (setting [3]); 0.5 in assay [1] (setting [4]); 0.7 in the assay with K. pneumoniae (setting [5]); 0.9 in assay [2] (setting [6]); 0.9 with P. aeruginosa (setting [7]); 1.1 in the assay with E. cloacae (setting [8]). The fold induction at 50 µM with E. coli (setting [9]) came out at 0.8.
In the case of Antimycin A, the “AK-based Prestwick Library Screening Results: E. faecium (increase in extracellular AK activity)” value in the assay with E. faecium (planktonic E. faecium, 384-well, […]) is 1.1. In assay [1] (planktonic S. aureus, 384-well, […]), the “AK-based Prestwick Library Screening Results: S. aureus (increase in extracellular AK activity)” value was determined as 1.0. For the same compound, the “AK-based Prestwick Library Screening Results: K. pneumoniae (increase in extracellular AK activity)” value with K. pneumoniae (planktonic K. pneumoniae, 384-well, […]) came to 1.0. The “AK-based Prestwick Library Screening Results: A. baumannii (increase in extracellular AK activity)” value in assay [2] (planktonic A. baumannii, 384-well, […]) is 1.4. Besides, the “AK-based Prestwick Library Screening Results: P. aeruginosa (increase in extracellular AK activity)” value in the assay with P. aeruginosa (planktonic P. aeruginosa, 384-well, […]) was 1.1. The “AK-based Prestwick Library Screening Results: E. cloacae (increase in extracellular AK activity)” value with E. cloacae (planktonic E. cloacae, 384-well, […]) was 1.3. In the assay with E. coli (planktonic E. coli, 384-well, […]), the “AK-based Prestwick Library Screening Results: E. coli (increase in extracellular AK activity)” value stood at 1.3.
For the compound `CC1CC(OC(=O)C(O)c2ccccc2)CC(C)(C)N1C` (stereo not drawn) [Eucatropine hydrochloride], the fold induction at 50 µM in the assay with E. faecium (cutoff for positive-scoring molecules 3-fold increase, read-out: AK-based Prestwick Library Screening Results, E. faecium (fold increase in extracellular AK activity)) was 1.1; in assay [1] (cutoff for positive-scoring molecules 3-fold increase, read-out: AK-based Prestwick Library Screening Results, S. aureus (fold increase in extracellular AK activity)), 1.3; with K. pneumoniae (cutoff for positive-scoring molecules 3-fold increase, read-out: AK-based Prestwick Library Screening Results, K. pneumoniae (fold increase in extracellular AK activity)), 0.9; in assay [2] (cutoff for positive-scoring molecules 3-fold increase, read-out: AK-based Prestwick Library Screening Results, A. baumannii (fold increase in extracellular AK activity)), 1.1; in the assay on P. aeruginosa (cutoff for positive-scoring molecules 3-fold increase, read-out: AK-based Prestwick Library Screening Results, P. aeruginosa (fold increase in extracellular AK activity)) it was 1.1; in the assay on E. cloacae (cutoff for positive-scoring molecules 3-fold increase, read-out: AK-based Prestwick Library Screening Results, E. cloacae (fold increase in extracellular AK activity)), 1.6. In the assay on E. coli (cutoff for positive-scoring molecules 3-fold increase, read-out: AK-based Prestwick Library Screening Results, E. coli (fold increase in extracellular AK activity)), the fold induction at 50 µM came out at 1.2.
Take `CCN1CCCC1CNC(=O)c1cc(S(N)(=O)=O)ccc1OC` (stereo not drawn) [Sulpiride]: the fold induction at 50 µM is 1 in the assay on E. faecium (planktonic E. faecium, 384-well, […], read-out: AK-based Prestwick Library Screening Results: E. faecium (increase in extracellular AK activity)); 1.1 in assay [1] (planktonic S. aureus, 384-well, […], read-out: AK-based Prestwick Library Screening Results: S. aureus (increase in extracellular AK activity)); 1 in the assay on K. pneumoniae (planktonic K. pneumoniae, 384-well, […], read-out: AK-based Prestwick Library Screening Results: K. pneumoniae (increase in extracellular AK activity)); 1 in assay [2] (planktonic A. baumannii, 384-well, […], read-out: AK-based Prestwick Library Screening Results: A. baumannii (increase in extracellular AK activity)); 1.1 in the assay with P. aeruginosa (planktonic P. aeruginosa, 384-well, […], read-out: AK-based Prestwick Library Screening Results: P. aeruginosa (increase in extracellular AK activity)); 1.6 in the assay on E. cloacae (planktonic E. cloacae, 384-well, […], read-out: AK-based Prestwick Library Screening Results: E. cloacae (increase in extracellular AK activity)). The fold induction at 50 µM in the assay on E. coli (planktonic E. coli, 384-well, […], read-out: AK-based Prestwick Library Screening Results: E. coli (increase in extracellular AK activity)) came to 1.
Turning to `C[C@@H]1C(=O)O[C@H]2C[C@@]34[C@H]5C[C@@H](C(C)(C)C)[C@]36[C@@H](OC(=O)[C@@H]6O)O[C@@]4(C(=O)O5)[C@]21O` [Ginkgolide A], the “AK-based Prestwick Library Screening Results, E. faecium (increase in extracellular AK activity)” value with E. faecium (planktonic E. faecium, […]) is 1.0. Also, the “AK-based Prestwick Library Screening Results, S. aureus (increase in extracellular AK activity)” value in assay [1] (planktonic S. aureus, […]) was determined as 1.1. Besides, in the assay with K. pneumoniae (planktonic K. pneumoniae, […]), the “AK-based Prestwick Library Screening Results, K. pneumoniae (increase in extracellular AK activity)” value is 1.0. Also, in assay [2] (planktonic A. baumannii, […]), the “AK-based Prestwick Library Screening Results, A. baumannii (increase in extracellular AK activity)” value is 1.0. Besides, the “AK-based Prestwick Library Screening Results, P. aeruginosa (increase in extracellular AK activity)” value in the assay with P. aeruginosa (planktonic P. aeruginosa, […]) turned out to be 1.1. In the assay on E. cloacae (planktonic E. cloacae, […]), the “AK-based Prestwick Library Screening Results, E. cloacae (increase in extracellular AK activity)” value stood at 1.2. Moreover, in the assay on E. coli (planktonic E. coli, […]), the “AK-based Prestwick Library Screening Results, E. coli (increase in extracellular AK activity)” value was determined as 1.3.
In the case of `CC(=O)Oc1cc(C(C)C)c(OCCN(C)C)cc1C.Cl` [Moxisylyte hydrochoride], the “AK-based Prestwick Library Screening Results, E. faecium (increase in extracellular AK activity)” value in the assay on E. faecium (setting [10]) is listed as 0.9. Moreover, in assay [1] (setting [10]), the “AK-based Prestwick Library Screening Results, S. aureus (increase in extracellular AK activity)” value was found to be 1.1. In the assay with K. pneumoniae (setting [10]), the “AK-based Prestwick Library Screening Results, K. pneumoniae (increase in extracellular AK activity)” value turned out to be 1.0. In addition, in assay [2] (setting [10]), the “AK-based Prestwick Library Screening Results, A. baumannii (increase in extracellular AK activity)” value is given as 1.1. For the same compound, the “AK-based Prestwick Library Screening Results, P. aeruginosa (increase in extracellular AK activity)” value with P. aeruginosa (setting [10]) is reported as 1.1. Besides, the “AK-based Prestwick Library Screening Results, E. cloacae (increase in extracellular AK activity)” value in the assay on E. cloacae (setting [10]) was determined as 1.6. Besides, the “AK-based Prestwick Library Screening Results, E. coli (increase in extracellular AK activity)” value with E. coli (setting [10]) is 1.2.
In the case of `CC[N+](CC)(CC)CCC(O)(c1ccccc1)C1CCCCC1.[Cl-]` (stereo not drawn) [Tridihexethyl chloride], the “AK-based Prestwick Library Screening Results, E. faecium (fold increase in extracellular AK activity)” value in the assay on E. faecium (setting [11]) stood at 0.8. In assay [1] (setting [11]), the “AK-based Prestwick Library Screening Results, S. aureus (fold increase in extracellular AK activity)” value was 0.4. In addition, the “AK-based Prestwick Library Screening Results, K. pneumoniae (fold increase in extracellular AK activity)” value in the assay on K. pneumoniae (setting [11]) is 0.4. The “AK-based Prestwick Library Screening Results, A. baumannii (fold increase in extracellular AK activity)” value in assay [2] (setting [11]) is on record as 0.4. For the same compound, in the assay on P. aeruginosa (setting [11]), the “AK-based Prestwick Library Screening Results, P. aeruginosa (fold increase in extracellular AK activity)” value came out at 0.4. For the same compound, the “AK-based Prestwick Library Screening Results, E. cloacae (fold increase in extracellular AK activity)” value in the assay with E. cloacae (setting [11]) turned out to be 0.3. The “AK-based Prestwick Library Screening Results, E. coli (fold increase in extracellular AK activity)” value in the assay with E. coli (setting [11]) turned out to be 0.4.
For the compound `CC[C@@H](C(=O)[C@@H](C)[C@@H](O)[C@H](C)CCc1ccc(C)c(O)c1C(=O)O)[C@H]1O[C@](CC)([C@H]2CC[C@](O)(CC)[C@H](C)O2)C[C@@H]1C` [Lasalocid sodium salt], the fold induction at 50 µM amounted to 0.9 in the assay with E. faecium (setting [3]); 3.7 in assay [1] (setting [4]); 0.7 in the assay with K. pneumoniae (setting [5]); 2.6 in assay [2] (setting [6]); 0.7 in the assay with P. aeruginosa (setting [7]); 1 in the assay on E. cloacae (setting [8]). Further, in the assay with E. coli (setting [9]), the fold induction at 50 µM stood at 1.

For the origin of these results see patent US10004701B2, “Methods and compositions for treating infection” (UNIVERSITY OF ROCHESTER, priority 2012, dated 2018).
